From US20160311788A1, “Antifouling Compounds And Use Thereof” (National University of Singapore, priority 2008, published 2016) come the findings set out here.

≈ marks a conversion by molar mass, not a printed value. Read-outs that look alike come from different tables or passages of the source. Where only a bound is given, the exact number is not on record here.

Data set [1] relates to marine bacteria strain S1. Description: disc inhibition assay, strain S1. It is filed as cell-based, Rhodovulum iodosum. Conditions: strain 1, 50 μg of compound per disc. The method in brief: (§1)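 Compounds were applied at 50 μg per 6 mm disc (from 2 mg/ml DMSO stock; DMSO control) onto lawns of Singapore coastal fouling bacteria on marine agar. After overnight incubation in the dark at 35 °C, inhibition-zone diameters were caliper-measured; mean of two replicates.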

For data set [2], the system named is marine bacteria strain S27. Nature of the data set: disc inhibition assay, strain S27. Type of data set: cell-based, Tenacibaculum lutimaris. As to conditions: strain 27, 50 μg of compound per disc; for zone of inhibition at 50 µg/disc: Tenacibaculum lutimaris, S27, 24 h, read-out: zone of inhibition. In a few lines:
as §1

Data set [3] deals with marine bacteria strain S10. Description: disc inhibition assay, strain S10. It is filed as cell-based, Halobacillus trueperi. Conditions: strain 10, 50 μg of compound per disc. In a few lines: as §1
Data set [4] concerns marine bacteria strain S14. Nature of the data set: disc inhibition assay, strain S14. Conditions: strain 14, 50 μg of compound per disc. It is filed as cell-based, Vibrio probioticus.
Data set [5] relates to marine bacteria strain S28. Description: disc inhibition assay, strain S28. As to conditions: strain 28, 50 μg of compound per disc. Type of data set: cell-based, Arthrobacter protophormial. In a few lines:
as §1

Data set [6] concerns cyprids of Balanus amphitrite. Nature of the data set: barnacle settlement assay. It is filed as in vivo. Conditions: for IC50: Amphibalanus amphitrite, 24 h, Table 3(a), concentration that caused 50% settlement inhibition, 24 hours, cyprids, read-out: ED50 (the source's name). As for the experimental part:
(§2) Pure compounds were suspended in DMSO and sonicated to obtain a stock solution of 50 mg ml^−1 in DMSO. This stock solution is stored at −20° C. in 4 ml amber screw cap vials. For the bioassays, a small volume of stock solution was added to 1 μm filtered seawater in a glass scintillation vial. This suspension was then sonicated around 10 minutes. Serial dilutions were generated to the required range of concentrations. Serial dilution of the equivalent amounts of DMSO in seawater was used as the control.
(§3) The barnacle bioassay method used follows from the method first introduced by Rittschof et al. (1992), and subsequently by other authors (Willemsen et al., 1998). This method is now standard practice for many antifouling screening of novel compounds.
Barnacle settlement assays were based on methodology from Rittschof et al. (1992). Barnacle larvae from field-collected adults were reared on an algal mixture of 1:1 v/v of Tetraselmis suecica and Chaetoceros muelleri at 25° C., at approximately 5×10^5 cells per ml density. On this regime, larvae metamorphose to cyprids in 5 days. These cyprids were aged at 4° C. for 2-3 days, and 45-70% settlement after 24 hours (Willemsen et al., 1998).
Settlement tests were conducted in 7 ml neutral glass vials (Samco® T1 03N1) 34 mm by 23 mm diameter, with 20-40 cyprids per well. Test solutions were made up to twice the required final concentration. 0.5 ml of test solution was added into each well, and cyprids were transferred into each well in 0.5 ml of seawater. Assays were done in triplicate. As before, there were two sets of controls, a blank control consisting 3 tubes of seawater only, and DMSO control consisting of the equivalent dilution series with DMSO without compound. After 24 hours, larvae that had attached and metamorphosed were enumerated and the result expressed as percentage settlement. Larvae not attached were scored as not settled. The assays were repeated and the concentration that caused 50% settlement inhibition (ED50) was determined by pro bit analysis using a basic computer program (Lieberman, 1983), or by estimation from graphed data.

The subject of data set [7] is marine bacteria strain S30. Nature of the data set: disc inhibition assay, strain S30. It is filed as cell-based, Bacillus borophilicus. Conditions: strain 30, 50 μg of compound per disc. The method in brief: as §1
The test system of data set [8] is marine bacteria strain S18. Nature of the data set: disc inhibition assay, strain S18. Type of data set: cell-based, Microbacterium esteraromaticum. Conditions: strain 18, 50 μg of compound per disc.
The subject of data set [9] is marine bacteria strain S3. Nature of the data set: disc inhibition assay, strain S3. Type of data set: cell-based, Erythrobacter aquimaris. Conditions: strain 3, 50 μg of compound per disc; for zone of inhibition at 50 µg/disc: Qipengyuania aquimaris, S3, 24 h, read-out: zone of inhibition. The method in brief: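 Antibacterial susceptibility was measured by agar disc diffusion. Compounds dissolved in DMSO were applied to 6 mm sterile discs and laid on Marine Agar lawns of a Singapore coastal marine bacterium cultured in marine broth. After overnight dark incubation at 35° C, clearing zone diameters were measured with Vernier calipers, and the two replicates were averaged.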

Data set [10] has as its system marine bacteria strain S9. Description: disc inhibition assay, strain S9. Type of data set: cell-based, Bacillus algicola. Conditions: strain 9, 50 μg of compound per disc; for zone of inhibition at 50 µg/disc: Guptibacillus algicola, S9, 24 h, read-out: zone of inhibition. The method in brief: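 Read-out is the diameter of the zone of clearing around each disc, measured with Vernier calipers and averaged over duplicates. Each disc carried 50 μg of compound applied from a 2 mg/ml DMSO stock onto a Marine Agar bacterial lawn, incubated overnight at 35° C in darkness.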

The subject of data set [11] is marine bacteria strain S4. Description: disc inhibition assay, strain S4. It is filed as cell-based, Bacillus algicola. As to conditions: strain 4, 50 μg of compound per disc; for zone of inhibition at 50 µg/disc: Guptibacillus algicola, S4, 24 h, read-out: zone of inhibition. The method in brief:
as §1

The subject of data set [12] is marine bacteria strain S29. Description: disc inhibition assay, strain S29. It is filed as cell-based, Bacillus hwajinpoensis. As to conditions: strain 29, 50 μg of compound per disc. The method in brief:
as §1

In data set [13] the test system is marine bacteria strain S16. Description: disc inhibition assay, strain S16. Type of data set: cell-based, Pseudoalteromonas piscicida. Conditions: for zone of inhibition at 50 µg/disc: Pseudoalteromonas piscicida, S16, 24 h. The method in brief: as §1
The subject of data set [14] is marine bacteria strain S17. Nature of the data set: disc inhibition assay, strain S17. It is filed as cell-based, Gordonia terrae. Conditions: strain 17, 50 μg of compound per disc. In a few lines:
as §1

The subject of data set [15] is Stage II nauplii of Balanus amphitrite. Description: barnacle toxicity assay. Type of data set: in vivo. As to conditions: for LD50: Table 3(a), concentration that caused 50% mortality, 22 to 24 hours, Stage II nauplii. As for the experimental part: as §2, §3
Toxicity assays were modified from Rittschof et al. (1992). Stage II naupliar larvae used in tests were obtained from Balanus amphitrite adults collected from inter-tidal rock walls at Kranji mangrove, Singapore. Larvae were collected from a container of adults by attraction to a point source of light and transferred to 500 ml of fresh seawater. Next, larvae were re-concentrated with a fiber optic light and added to assays.
Duplicate assays were conducted in 2 ml glass vials (La Pha Pack® PN 11-14-0544) in 1 ml of filtered seawater for 22 to 24 hours. The assays were repeated for confirmation. There were two sets of controls, a blank control consisting of 3 tubes of seawater only, and DMSO control consisting of the equivalent dilution series with DMSO without compound). For the compounds, there were 3 tubes of each for each test concentration. The assay was initiated by addition of barnacle naupliar in 50 μl of seawater. After 22 to 24 hours of incubation at 25-27° C. solutions containing test animals were transferred to a Bogorov tray and scored as living or dead. Moribund larvae were scored as dead. Results were confirmed by repeating the assay. Data were combined and the concentration that caused 50% mortality (LD50) was calculated by probit analysis using a basic computer program (Libermann, 1983). If data were not appropriate for probit analysis, the LD50 was estimated from graphed data.

Setting [16] is: strain 16, 50 μg of compound per disc, read-out: zone of inhibition.
The mark [17] stands for this setting: strain 16, 50 μg of compound per disc.

Turning to `OC1(c2ccc(Cl)cc2)CCNCC1` [Compound 3.4], the zone of inhibition entry in data set [1], in [2], in data set [3], in data set [4], in data set [5] and in data set [7] was “−” each time. Moreover, the zone of inhibition entry in data set [8], in [9], in data set [12] and in data set [14] was “−” throughout. Besides, in [6], the IC50 is 43.9 µg/mL (≈ 208 µM). Also, the zone of inhibition at 50 µg/disc in [10], in [11] and in data set [13] (setting [16]) was 2 to 5 mm in each case. This compound gave an LD50 in data set [15] of 8.41 µg/mL.

In the case of `O=C(C(c1ccccc1)c1ccccc1)N1CCCCC1` [Compound 4.1, 2,2-Diphenyl-1-(piperidin-1-yl)ethanone], the zone of inhibition entry in data set [1], in [4], in [7], in data set [12] and in [13] (setting [17]) was “−” each time. Besides, the zone of inhibition at 50 µg/disc in data set [2] was in the range of 2 to 5 mm; in data set [3] (Halobacillus trueperi, S10, 24 h, read-out: zone of inhibition) it was 2 to 5 mm; in data set [5] (Arthrobacter, S28, 24 h, read-out: zone of inhibition), 2 to 5 mm; in data set [8] (Microbacterium esteraromaticum, S18, 24 h, read-out: zone of inhibition) it was 2 to 5 mm; in data set [9], 5 to 10 mm; in [10] it was 2 to 5 mm. The zone of inhibition at 50 µg/disc in [11] was 2 to 5 mm; in data set [14] (Gordonia terrae, S17, 24 h, read-out: zone of inhibition), 2 to 5 mm. Besides, the “anti-settlement activity in words” value in data set [6] was “displayed anti-settlement activity”. In addition, in data set [6], the IC50 worked out at 2.35 µg/mL (≈ 8.41 µM). Also, the LD50 in data set [15] was > 50 µg/mL. Moreover, in data set [15] (in vivo), the “naupliar toxicity in words” value was “no observable naupliar toxicity”.

Regarding `CN1CCC(O)(c2ccccc2)CC1` [Compound 4.4], the zone of inhibition result in data set [1], in data set [2], in data set [3], in data set [4], in data set [5] and in data set [7] was “−” in each case. Also, the zone of inhibition result in [8], in data set [9], in [10], in data set [11], in [12] and in data set [14] was “−” each time. For the same compound, the IC50 in data set [6] stood at 5.98 µg/mL (≈ 31.3 µM). Moreover, the zone of inhibition at 50 µg/disc in data set [13] fell in the range of 2 to 5 mm. Also, the LD50 in [15] is 12.35 µg/mL.

On to `O=C(C(c1ccccc1)c1ccccc1)N1CCC(O)(c2ccccc2)CC1` [Compound 4.5], for which the zone of inhibition entry in data set [1], in data set [2], in [3], in data set [4], in [5] and in data set [7] was “−” each time. Besides, the zone of inhibition result in [8], in data set [10], in data set [11], in data set [12], in data set [13] (setting [17]) and in data set [14] was “−” in each case. In addition, the IC50 in [6] came to 6.48 µg/mL (≈ 17.4 µM). Further, in data set [9], the zone of inhibition at 50 µg/disc lay in the range of 5 to 10 mm. In addition, the LD50 in [15] was > 50 µg/mL.

Turning to `O=C(Cc1ccccc1)N1CCC(O)(c2ccccc2)CC1` [Compound 10.4], the zone of inhibition entry in [1], in [3], in [4], in data set [5], in data set [7] and in data set [8] was “−” throughout. Also, the zone of inhibition result in data set [11], in data set [12] and in [14] was “−” throughout. Besides, the zone of inhibition at 50 µg/disc in data set [2], in data set [9], in data set [10] and in data set [13] (setting [16]) was 2 to 5 mm throughout. For the same compound, the IC50 in [6] was found to be 15 µg/mL (≈ 50.8 µM). In addition, in data set [15], the LD50 is > 50 µg/mL.

Regarding `CCCCC(CCCC)C(=O)N(C)C` [Compound 12.3], the zone of inhibition entry in data set [1], in data set [2], in data set [3], in data set [4], in [5] and in data set [7] was “−” throughout. The zone of inhibition result in [8], in data set [9], in [10], in data set [11], in data set [13] (setting [17]) and in data set [14] was “−” each time. For the same compound, in data set [6], the IC50 is 2.76 µg/mL (≈ 13.8 µM). For the same compound, the zone of inhibition at 50 µg/disc in [12] (Guptibacillus hwajinpoensis, S29, 24 h, read-out: zone of inhibition) was 2 to 5 mm. For the same compound, the LD50 in data set [15] was > 50 µg/mL.
